{"source": "patent US20080152736A1", "about": "“Lipid Fraction of Nigella Sativa L. Seeds” (priority 2004, published 2008)", "key": {"[1]": {"details": "16 published human studies, total of 590 subjects; cited from earlier work"}, "[2]": {"tested_on": "Salmonella typhi murium", "test": "In vitro antimicrobial comparison, bore method (zone of inhibition)", "assay_type": "cell-based", "details": "Ampicillin 1: g/mg; mean ± S.E. of 4 observations", "experimental": "(§1) The comparative antibacterial activity of ampicillin (1 microg/mg) and the Nigella sativa L. lipid fraction (1 mg/ml) against Staphylococcus pyogenes, Corynebacterium pyogenes and Salmonella typhi murium was performed in vitro using the bore method described by Cooper and Woodman (1964)."}, "[3]": {"tested_on": "Corynebacterium pyogenes", "test": "In vitro antimicrobial comparison, bore method (zone of inhibition)", "assay_type": "cell-based", "details": "Ampicillin 1: g/mg; mean ± S.E. of 4 observations", "experimental": "as §1"}, "[4]": {"tested_on": "Staphylococcus pyogenes", "test": "In vitro antimicrobial comparison, bore method (zone of inhibition)", "assay_type": "cell-based", "details": "Ampicillin 1: g/mg; mean ± S.E. of 4 observations", "experimental": "as §1"}, "[5]": {"tested_on": "sensitized guinea pigs exposed to ova albumin inhalation", "test": "Tachypnea protective effect in ova albumin sensitized animals", "assay_type": "in vivo", "details": "ketotifen 50: g/kg, treated for 21 days", "experimental": "This experiment was an in vivo study to evaluate the tachypnea (protective) effect of the Nigella sativa L. lipid fraction of the present invention. The second protocol involved sensitized animals. Animals were sensitized by injecting ova albumin in two doses 100 mg each (S.C. and I.P., simultaneously). Animals were resensitized 15 days later. Guinea pigs were divided into three groups with 8 animals per group. The first group received a saline injection to serve as negative control. The second group received ketotifen which is the standard treatment to serve as positive control. The third group received 200 mg/kg each of the Nigella sativa L. lipid fraction of the present invention. Animals in all groups were treated for 21 days following which they were exposed to ova albumin inhalation and time to onset of tachypnea was recorded as shown in the table below."}, "[6]": {"tested_on": "guinea pigs exposed to histamine aerosol (0.25%)", "test": "Prophylactic anti-asthmatic effect, preconvulsive time on histamine aerosol", "assay_type": "in vivo", "details": "ketotifen 50: g/kg, treated for 21 days; histamine (0.25%) aerosol", "experimental": "This example explains in vivo studies to evaluate the prophylactic (protective) anti-asthmatic effect of the Nigella sativa L. lipid fraction of the present invention. The prophylactic anti-asthmatic effect was evaluated in vivo by measurement of the preconvulsive time in guinea pigs exposed to histamine aerosol (0.25%).\nGuinea pigs were divided into three groups with 8 animals per group. The first group received saline with injection to serve as negative control. The second group received ketotifen, which is the standard treatment to serve as positive control. The third group received 200 mg/kg each of the Nigella sativa L. lipid fraction of the present invention.\nAnimals in all groups were treated for 21 days following, after which they were exposed to histamine (0.25%) aerosol and the preconvulsive time was recorded."}}, "data": [{"compound": "phytosterol", "values": [{"measurement": "average reduction in total cholesterol", "setting": "[1]", "result": 10, "unit": "%"}, {"measurement": "reduction in LDL cholesterol levels", "setting": "[1]", "result": 13, "unit": "%"}]}, {"compound": "CC1(C)S[C@@H]2[C@H](NC(=O)[C@H](N)c3ccccc3)C(=O)N2[C@H]1C(=O)O", "note": "[Ampicillin, ampicillin]", "values": [{"measurement": "Diameter of Zone of inhibition", "setting": "[2]", "result": "13.1 ± 0.2", "unit": "mm"}, {"measurement": "Diameter of Zone of inhibition", "setting": "[3]", "result": "44.7 ± 0.8", "unit": "mm"}, {"measurement": "Diameter of Zone of inhibition", "setting": "[4]", "result": "26.7 ± 0.3", "unit": "mm"}]}, {"compound": "CN1CCC(=C2c3ccccc3CC(=O)c3sccc32)CC1", "note": "[ketotifen]", "values": [{"measurement": "% of Prophylaxis", "setting": "[5]", "result": 44.4, "unit": "%"}, {"measurement": "% of Prophylaxis (Protection)", "setting": "[6]", "result": 82.85, "unit": "%"}]}]}
